In patent US12024490B2, “Polymeric metal chelating compositions and methods of preparing same for controlling growth and activities of living cells and organisms for therapeutic use in treating diseases in animals, fish or humans” (CHELATION PARTNERS INCORPORATED, priority 2016, dated 2024) one finds MIC data, which are given here for one molecule.

For the test, the system named is Staphylococcus aureus. Description: Growth inhibition (MIC) in RPMI 1640, Staphylococcus aureus. The conditions noted are these: method of Example 6, read-out: MIC for S. aureus. The test is classed as cell-based. The procedure:
Chelating compositions were assessed for their biological activity in vitro by determination of their growth inhibitory activity for Staphylococcus aureus (strain 038, a clinical isolate from a corneal infection obtained from Dr. Mark Wilcox, University New South Wales, Australia or strain ATCC 43300, a prototypical clinical isolate and reference strain obtained from the American Type Culture Collection) and Candida albicans (SC5314, a prototypical clinical isolate and reference strain obtained from the American Type Culture Collection or strain 3969 a clinical isolate obtained from the Queen Elizabeth II hospital, Halifax, Canada). The microorganisms were grown in RPMI 1640 culture medium and tested in fresh aliquots of RPMI 1640 medium or in medium that had been partially deferrated by the method of Holbein and Mira (Holbein B. E, Mira de Orduña R. 2010, FEMS Microbiol Lett. 307(1):19-24, herein incorporated by reference) to allow testing at low Fe levels or with iron re-added at known concentrations to this deferrated medium. Growth at 30° C. was measured by optical density when the test samples were incubated in tubes or visually when growth was tested in microtitre dish wells. […]

Values after ≈ are worked out from the molar mass of the structure shown.

`C=C(C)C(=O)NCCn1ccc(=O)c(O)c1C` [MAHMP, 3-hydroxy-1-(β-methacrylamidoethyl)-2-methyl-4(1H)-pyridinone]: the MIC – broadly, the least concentration at which growth counts as inhibited – was determined as 125 µg/mL (≈ 529 µM).
